Legend:
Format in all cases: in vivo
[1] = tested on: barnyardgrass (Echinochloa crus-galli); assay: Test B flooded paddy test; settings: for Plant response rating, Barnyardgrass: Flood (flooded paddy test), 13 to 15 days
Method in brief: (§1)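 Rice, umbrella sedge, ducksalad and barnyardgrass were grown to the 2-leaf stage, flooded to 3 cm, and compound was applied directly to the paddy water, with that depth kept throughout. After 13 to 15 days in the greenhouse, plants were visually rated against controls on a 0 (no effect) to 100 (complete control) scale.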

[2] = tested on: umbrella sedge (Cyperus difformis); assay: Test B flooded paddy test; settings: for Plant response rating, Sedge, Umbrella: Flood (flooded paddy test), 13 to 15 days
Method in brief: as §1

[3] = tested on: rice (Oryza sativa); assay: Test B flooded paddy test; settings: for Plant response rating, Rice: Flood (flooded paddy test), 13 to 15 days
Method in brief: as §1

[4] = tested on: ducksalad (Heteranthera limosa); assay: Test B flooded paddy test; settings: for Plant response rating, Ducksalad: Flood (flooded paddy test), 13 to 15 days
Method in brief: as §1

[5] = tested on: pigweed (Amaranthus retroflexus); assay: Test B pre-/postemergence plant response
Method in brief: (§2)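 Seeds sown in loam–sand blend were treated preemergence, and plants at 2–18 cm (1- to 4-leaf stage) in peat-based medium were treated postemergence; compounds were formulated in non-phytotoxic solvent with surfactant. After 13–15 days in greenhouse, response was visually rated against controls, 0 (no effect) to 100 (complete control).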

[6] = tested on: green foxtail (Setaria viridis); assay: Test B pre-/postemergence plant response
Method in brief: as §2

[7] = tested on: kochia (Kochia scoparia); assay: Test B pre-/postemergence plant response
Method in brief: as §2

[8] = tested on: corn (Zea mays); assay: Test B pre-/postemergence plant response
Method in brief: as §2

[9] = tested on: bermudagrass (Cynodon dactylon); assay: Test B pre-/postemergence plant response
Method in brief: as §2

[10] = tested on: soybean (Glycine max); assay: Test B pre-/postemergence plant response
Method in brief: as §2

[11] = tested on: lambsquarters (Chenopodium album); assay: Test B pre-/postemergence plant response
Method in brief: as §2

[12] = tested on: wild oat (Avena fatua); assay: Test B pre-/postemergence plant response
Method in brief: as §2

[13] = tested on: giant foxtail (Setaria faberii); assay: Test B pre-/postemergence plant response
Method in brief: as §2

[14] = tested on: johnsongrass (Sorghum halepense); assay: Test B pre-/postemergence plant response
Method in brief: as §2

[15] = tested on: cocklebur (Xanthium strumarium); assay: Test B pre-/postemergence plant response
Method in brief: as §2

[16] = tested on: ragweed (common ragweed, Ambrosia elatior); assay: Test B pre-/postemergence plant response
Method in brief: as §2

[17] = 250 g ai/ha, flooded paddy test, visual rating on 0 to 100 scale (0 no effect, 100 complete control) after 13 to 15 days
[18] = 31 g ai/ha, scale of 0 to 100 where 0 is no effect and 100 is complete control
[19] = 62 g ai/ha, scale of 0 to 100 where 0 is no effect and 100 is complete control
[20] = 125 g ai/ha, scale 0 to 100, 0 is no effect, 100 is complete control
[21] = 31 g ai/ha, postemergence, scale 0 to 100, 0 is no effect, 100 is complete control
[22] = 250 g ai/ha, Preemergence, 0 to 100 scale
[23] = Postemergence, 62 g ai/ha, scale 0 (no effect) to 100 (complete control), 13 to 15 days
[24] = Postemergence, 125 g ai/ha, visual rating after 13 to 15 days, scale 0 (no effect) to 100 (complete control)
[25] = Preemergence, 31 g ai/ha, scale 0 to 100 (0 no effect, 100 complete control)
[26] = Preemergence, 125 g ai/ha, 0 to 100 scale
[27] = Postemergence, 250 g ai/ha, scale 0 to 100
[28] = Preemergence, 62 g ai/ha, scale 0 to 100, 0 no effect, 100 complete control

CCn1c(-c2ccccc2)ncc(C(=O)C2=C(O)CCCC2=O)c1=O [Compound 49]
Plant response rating, Flood, Barnyardgrass [1, 17]: 0 | Plant response rating, Barnyardgrass [1, 18]: 0 | Plant response rating, Barnyardgrass [1, 19]: 0 | Plant response rating, Barnyardgrass [1, 20]: 0 | Plant response rating, Flood, Sedge, Umbrella [2, 17]: 85 | Plant response rating, Sedge, Umbrella [2, 18]: 0 | Plant response rating, Sedge, Umbrella [2, 19]: 0 | Plant response rating, Sedge, Umbrella [2, 20]: 0 | Plant response rating, Flood, Rice [3, 17]: 15 | Plant response rating, Rice [3, 18]: 0 | Plant response rating, Rice [3, 19]: 0 | Plant response rating, Rice [3, 20]: 10 | Plant response rating, Flood, Ducksalad [4, 17]: 70 | Plant response rating, Ducksalad [4, 18]: 0 | Plant response rating, Ducksalad [4, 19]: 0 | Plant response rating, Ducksalad [4, 20]: 40 | Plant response rating, Pigweed [5, 21]: 80 | Plant response rating, Pigweed [5, 22]: 100 | Plant response rating, Pigweed [5, 23]: 90 | Plant response rating, Pigweed [5, 24]: 95 | Plant response rating, Pigweed [5, 25]: 100 | Pigweed plant response rating [5, 26]: 100 | Plant response rating, Foxtail, Green [6, 21]: 50 | Plant response rating, Foxtail, Green [6, 22]: 30 | Plant response rating, Foxtail, Green [6, 23]: 50 | Plant response rating, Foxtail, Green [6, 24]: 75 | Foxtail, Green plant response rating [6, 27]: 90 | Plant response rating, Foxtail, Green [6, 25]: 0 | Plant response rating, Foxtail, Green [6, 28]: 0 | Foxtail, Green plant response rating [6, 26]: 5 | Plant response rating, Kochia [7, 21]: 55 | Plant response rating, Kochia [7, 23]: 65 | Plant response rating, Kochia [7, 24]: 80 | Kochia plant response rating [7, 27]: 90 | Plant response rating, Corn [8, 21]: 5 | Plant response rating, Corn [8, 22]: 0 | Plant response rating, Corn [8, 23]: 5 | Plant response rating, Corn [8, 24]: 5 | Corn plant response rating [8, 27]: 15 | Plant response rating, Corn [8, 25]: 0 | Plant response rating, Corn [8, 28]: 0 | Corn plant response rating [8, 26]: 0 | Plant response rating, Bermudagrass [9, 21]: 75 | Plant response rating, Bermudagrass [9, 22]: 100 | Plant response rating, Bermudagrass [9, 23]: 85 | Plant response rating, Bermudagrass [9, 24]: 95 | Bermudagrass plant response rating [9, 27]: 98 | Bermudagrass plant response rating [9, 26]: 98 | Plant response rating, Soybean [10, 21]: 55 | Plant response rating, Soybean [10, 22]: 85 | Plant response rating, Soybean [10, 23]: 65 | Plant response rating, Soybean [10, 24]: 85 | Plant response rating, Soybean [10, 25]: 0 | Soybean plant response rating [10, 26]: 85 | Plant response rating, Lambsquarters [11, 21]: 70 | Plant response rating, Lambsquarters [11, 22]: 98 | Plant response rating, Lambsquarters [11, 23]: 80 | Plant response rating, Lambsquarters [11, 24]: 90 | Lambsquarters plant response rating [11, 27]: 98 | Plant response rating, Lambsquarters [11, 25]: 95 | Plant response rating, Lambsquarters [11, 28]: 95 | Lambsquarters plant response rating [11, 26]: 98 | Plant response rating, Oat, Wild [12, 21]: 0 | Plant response rating, Oat, Wild [12, 22]: 0 | Plant response rating, Oat, Wild [12, 23]: 5 | Plant response rating, Oat, Wild [12, 24]: 5 | Plant response rating, Oat, Wild [12, 25]: 0 | Oat, Wild plant response rating [12, 26]: 0 | Plant response rating, Foxtail, Giant [13, 21]: 45 | Plant response rating, Foxtail, Giant [13, 22]: 45 | Plant response rating, Foxtail, Giant [13, 23]: 60 | Plant response rating, Foxtail, Giant [13, 24]: 70 | Foxtail, Giant plant response rating [13, 27]: 75 | Plant response rating, Foxtail, Giant [13, 25]: 0 | Plant response rating, Foxtail, Giant [13, 28]: 0 | Foxtail, Giant plant response rating [13, 26]: 20 | Plant response rating, Johnsongrass [14, 21]: 0 | Plant response rating, Johnsongrass [14, 22]: 10 | Plant response rating, Johnsongrass [14, 23]: 0 | Plant response rating, Johnsongrass [14, 24]: 10 | Johnsongrass plant response rating [14, 27]: 10 | Plant response rating, Johnsongrass [14, 25]: 0 | Plant response rating, Johnsongrass [14, 28]: 0 | Johnsongrass plant response rating [14, 26]: 0 | Plant response rating, Cocklebur [15, 21]: 65 | Plant response rating, Cocklebur [15, 22]: 55 | Plant response rating, Cocklebur [15, 23]: 80 | Plant response rating, Cocklebur [15, 24]: 80 | Cocklebur plant response rating [15, 27]: 85 | Plant response rating, Cocklebur [15, 25]: 0 | Plant response rating, Cocklebur [15, 28]: 20 | Cocklebur plant response rating [15, 26]: 45 | Plant response rating, Ragweed [16, 21]: 75 | Plant response rating, Ragweed [16, 22]: 95 | Plant response rating, Ragweed [16, 23]: 80 | Plant response rating, Ragweed [16, 24]: 80 | Plant response rating, Ragweed [16, 25]: 70 | Ragweed plant response rating [16, 26]: 80

Source: US8952024B2, “Herbicidal pyrimidone derivatives” (E I du Pont de Nemours and Company, priority 2009, dated 2015)
